The values below come from patent US10422787B2, “System and method for single molecule detection” (ARIZONA BOARD OF REGENTS on behalf of ARIZONA STATE …, priority 2015, dated 2019).

The test system of experiment [1] is cyclic RGD peptide. Description: Tunnel junction device functionalized with cyclic RGD peptide, gap 3.5 to 4 nm, current vs time. The experiment is classed as binding. Conditions: for signal on flowing solution over junction: X=0.1 μm junction, 10 pM α4β1 for several minutes, then 10 fM αVβ3. An excerpt:
FIG. 7 illustrates a cross-sectional view of a tunnel junction edge (i.e., the edge of an opening) of the device according to some embodiments of the present disclosure which includes a first metal electrode 71 (e.g., palladium, gold and/or platinum) onto which is deposited a layer of an insulating dielectric such as alumina 72 (for example). A second metal electrode 73 is then deposited, typically using one of the metals used for the first electrode. In some embodiments (not shown), the first electrode 71 and the second electrode 73 A cut is then made in the structure to expose the edge of these layers (fabrication of this type of device is described in detail in co-pending, published WO2015/161119, and also in Pang, Ashcroft et al. 2014) to form the opening/nanopore 78, shown here as a plane adjacent to the electrodes 71, 73. Accordingly, the first electrode 71 and the second electrode 73 can have an opening formed therethrough such as, for example, a nanopore. Said another way, the first electrode 71 and the second electrode 73 can be said to be arranged within or adjacent to an opening, or have a nanopore formed therethrough.
Specifically, for example, the insulating layer 72 is deposited with a thickness d that is chosen to be greater than the longest linear dimension of the recognition molecules 74 (L1, referred to as its effective length). However, according to some embodiments, it is chosen to be less than the combined overall length of the largest dimension of a target molecule 75 (L2, also referred to as its effective length) bound to the recognition molecule 74 (L1+L2). In the case of the integrin-RGD pair (FIGS. 3 and 4) the RGD molecule is about 1 nm at its longest, while the integrin is 9 nm, for a total of about 10 nm. […] However, a large particle that fluctuates into a highly conductive state could be used to mediate current flow (Vattay, Salahub et al. 2015). In some embodiments, the gap need only be made substantially larger than twice the largest dimension of the recognition molecules (i.e., >2L1). Thus, for example, if a recognition molecule is 1 nm at its longest dimension, then the gap is configured to be greater than 2 nm, preferably by about 10%, to accommodate variations in the junction geometry (larger than 2.2 nm in this example). In some embodiments, a gap size can be from the noted minimum up to the size of one recognition molecule plus the size of the target protein. For example, if the largest dimension of the protein is 9 nm, then the gap in this case can be as big 9 nm plus the size of one of the recognition molecules (1 nm in this example), thus, a gap of 10 nm.
However, when the junctions are exposed to the target protein (αvβ3 integrin) signals appear immediately. […] A clear signal is immediately generated which includes two (2) features as marked: a background current (of about 0.5 nA in this case) and noise spikes of 0.5 to 1 nA superimposed on top.

Experiment [2] relates to cyclic RGD peptide. Description: Fixed-gap (5 nm) MEMED tunnel chip functionalized with cyclic RGD peptide. It is filed as binding. On the set-up: signal in fixed-gap device: dose or concentration left out as unconfirmed. The method, then: A fixed gap tunneling device has significant advantages over STM measurements. […] It is fabricated much as described in our earlier paper. The basic fabrication of the layered device (10 nm Pd, 4 to 5 nm Al2O3 followed by 10 nm Pd, resting on top of a 25 nm SiN substrate and passivated on top with SiO2) was carried out by Norcada Inc. (Edmonton, Alberta). Our original devices had large (micron-scale) openings, but it was desired to restrict the region over which proteins could be captured to dimensions small enough that the capture of multiple molecules in the tunnel junction was unlikely (illustrated schematically by the capture of a single integrin in FIG. 16A). RIE was used to thin the underlying SiN substrate to ˜15 nm, followed by e-beam lithography using a hard mask and further RIE etching (FIG. 16C and Methods). In this way, slits were produced that were 50 to 100 nm across and up to 400 nm long, though the active area was defined by the top electrode widths of about 100 nm (FIG. 16C). After cleaning and functionalization (Methods) the device was immersed in 1 mM phosphate buffer (pH=7.4) with the electrode potentials controlled with respect to an Ag/AgCl electrode coupled via a salt bridge (SB in FIG. 16A).
Our devices often suffer from failure of the passivation layer (SiO2 in FIG. 16B) so that, even in the dilute electrolyte, leakage currents can be substantial (e.g., a few nA, FIG. 16D). […] Thus, these are currents that pass from exposed regions of the top electrodes via the electrolyte, and they are not a consequence of tunneling or electrochemical leakage across the tunnel gap itself. These leakage currents (FIG. 16D) show no distinctive features beyond the shot- and system electronic noise (distributed as a Gaussian, FIG. 16E). When […] α1β4 protein was added (FIG. 16F) the background current falls a little, presumably because of passivation of the exposed electrodes by non-specific adsorption of this protein. Once again, the signal is featureless, displaying the same intrinsic noise as observed in buffer alone (FIG. 16G). (In contrast to the STM measurements, no features have been observed in the fixed-gap devices in any measurement taken in the presence of α1β4.) However, once αVβ3 protein is added to the same device, dramatic jumps occur in the current (FIG. 16H). The background leakage current is reduced by about 20% on addition of the protein, consistent with the passivation effect seen in the macroscopic electrochemical measurements (FIGS. 14B, 14C). The signal jumps up from the baseline to two well defined levels (FIG. 16I) in this case. The states are separated by nearly 0.5 nA, corresponding to ˜1.5 nS conductance (Vt=0.3V). […]

In the case of “α4β1: homologous, weakly-binding integrin protein used as a control”, the background current result in the experiment on cyclic RGD peptide [1] (10 pM and 100 pM solutions) is “no background current”. Further, the “signal on flowing solution over junction” value in the experiment on cyclic RGD peptide [1] is given as “no signal being produced”. For the same substance, the “signal in fixed-gap device” value in the experiment with cyclic RGD peptide [2] (protein added) is recorded as “featureless”.

“αvβ3: ~200 kD αVβ3 extracelluar domain of human integrin, target protein bound by cyclic RGD peptide”: the background current entry with cyclic RGD peptide [1] (1 pM in 1 mM phosphate buffer pH 7.0) was “about 0.5 nA”. The “signal on flowing solution over junction” value in the experiment on cyclic RGD peptide [1] is on record as “a large signal appeared after a few minutes”. In the experiment with cyclic RGD peptide [1] (on increasing concentration to 10 pM), the “change of background current” value is reported as “increases by nearly an order of magnitude”. Besides, the “signal in undiluted Serasub (protein-free serum substitute)” value in the experiment with cyclic RGD peptide [2] (0.1 nM, tunneling bias 200 mV) was found to be 2LS signals were observed. Also, in the experiment on cyclic RGD peptide [2] (Vt=0.3V, 5 nm gap), the “conductance of current jump” value was approximately 1.5 nS and the “separation of current states (current jumps)” value was approximately 0.5 nA.
